Measured values: patent US11058716B2 (priority 2015, dated 2021)

Test system: PAO1 protein
Assay type: cell-based, Pseudomonas aeruginosa

SMILES: N[C@@H](CCC(=O)N[C@@H](CSN=O)C(=O)NCC(=O)O)C(=O)O [GSNO, nitrosoglutathione]
- overall SNO level of the PAO1 protein: increased significantly
